Experimental data: publication PMC12389711, “Study on the Excretion of a New Antihypertensive Drug 221s (2,9) in Rats” (Pharmaceuticals, 2025)
Like-named read-outs stand apart in the source and are kept apart here.

What was measured:
[1] = tested on: mice; design: method as in doi:10.19803/j.1672-8629.20220529; conditions: cited from earlier work
[2] = tested on: spontaneously hypertensive rats (SHR); design: method as in PMID 37446639; conditions: cited from earlier work
[3] = tested on: ACE; experiment: ACE content in murine serum, cerebral tissue and renal compartments (preliminary data); assay type: in vivo; conditions: cerebral tissue, renal compartments
[4] = Stability in rat urine, feces and bile matrices (QC samples); assay type: in vitro ADME
Description: The stability of 221s (2,9) in rat urine, feces, and bile matrices was evaluated using QC samples at three concentration levels (10, 1000, and 1600 ng/mL) across six replicates under four conditions per matrix: three freeze–thaw cycles, short-term storage (room temperature, 2 h), long-term storage (−80 °C, 30 days), and autosampler rack storage (4 °C, 24 h). Stability was quantified by comparing post-storage concentrations (normalized to freshly prepared QC samples analyzed in the same batch) with nominal values, with deviations ≤15% considered acceptable. Dilution reliability was assessed by 5-fold dilution of QC samples (1000/1600 ng/mL) in each matrix using blank rat plasma. Dilution accuracy was verified by comparing measured concentrations (post-dilution factor correction) to nominal values, with acceptable criteria defined as ≤15% relative error (RE) and ≤15% relative standard deviation (RSD).

[5] = Excretion study of unchanged drug in urine, feces and bile after oral administration (UPLC-MS/MS); assay type: in vivo, Sprague-Dawley rats; conditions: 30 mg/kg oral; for dose excreted: male, Sprague-Dawley, rat, at 72 h
Description: According to previous data, analytical separation was performed using an ultra-performance liquid chromatography-tandem mass spectrometry (UPLC-MS/MS) platform comprising a Waters ACQUITY UPLC H-Class (Waters, Milford, CT, USA) system coupled to an AB Sciex Triple Quad 6500 mass spectrometer (AB Sciex, Boston, MA, USA). Chromatographic resolution was achieved on a Waters ACQUITY UPLC BEH C18 column (1.7 μm, 2.1 × 50 mm) maintained at 40 °C. The mobile phase system incorporated two components: solvent A (0.02% formic acid and 5 mM NH4F in deionized water) and solvent B (acetonitrile), delivered at 0.2 mL/min with a 10 μL injection volume. The gradient program was configured as follows: 55% solvent A (0.0–0.6 min), 5% solvent A (0.6–2.5 min), followed by re-equilibration at 55% solvent A (2.5–5.0 min).
Mass spectrometric detection utilized positive electrospray ionization (ESI+) in MRM mode, monitoring precursor-to-product ion transitions at m/z 525.1→389.1 (221s (2,9)) and 357.0→220.9 (IS). Instrument parameters were optimized as follows: curtain gas 25 psi, ion source temperature 500 °C, GS1/GS2 pressures 50/40 psi, ion spray voltage 5 kV, and collision gas pressure 10 psi. Compound-dependent parameter settings included decluttering potential (DP), entrance potential (EP), collision cell exit potential (CXP), and collision energy (CE) of 160/10/5/63 V for 221s (2,9) and 70/10/5/20 V for IS. Data processing was executed using Analyst software (v1.6.3).
Six male Sprague-Dawley (SD) rats aged 8–10 weeks (body weight: 220–250 g) were individually housed in metabolic cages. Following a 12 h fasting period with free access to water, baseline urinary and fecal samples were collected as blank controls prior to drug administration. Samples of urine and feces were collected from 0–4 h, 4–8 h, 8–12 h, 12–24 h, 24–36 h, 36–48 h, 48–60 h, 60–72 h, and 72–84 h post-administration of 221s (2,9) with an oral dosage of 30 mg/kg. Urine samples were quantitatively measured for volume before storage at −80 °C while fecal samples were dried, pulverized, and weighed prior to preservation at −80 °C.
Six male SD rats were fasted for 12 h prior to drug administration, with free access to water. After being anesthetized with isoflurane, the rats were positioned supine on surgical platforms for common bile duct cannulation. Blank bile samples were collected following stabilization of bile flow. Following oral gavage of 30 mg/kg 221s (2,9), bile samples were sequentially collected during 0–2 h, 2–4 h, 4–8 h, 8–12 h, 12–24 h, 24–36 h, 36–48 h, and 48–72 h intervals. All biliary specimens were volumetrically measured and cryopreserved at −80 °C for subsequent analysis. Hydration maintenance was ensured through intraperitoneal administration of physiological saline during experimental procedures.
A total of 10 μL of IS (1 μg/mL) was added to each urinary sample (100 μL), followed by the addition of three volumes of acetonitrile. The mixtures were vortexed and centrifuged twice. Then, the supernatants were concentrated, lyophilized and reconstituted in 100 μL of acetonitrile. The supernatants were subjected to instrumental analysis after final centrifugation.
Fecal samples (100 mg) were homogenized with three volumes of saline via ultrasonication for 10 min. Then, 10 μL of IS (1 μg/mL) was added, before adding three volumes of acetonitrile. […] After vortexing and dual centrifugation, the supernatant was concentrated, lyophilized, and reconstituted in 100 μL of acetonitrile. The supernatants were subjected to instrument for analysis after final centrifugation.
Biliary samples (100 μL) were precisely aliquoted and added with 10 μL IS (1 μg/mL). Following homogenization, three volumes of acetonitrile were added to precipitate impurities. After vortexing and centrifuging twice, the supernatant was concentrated, lyophilized, and reconstituted in 100 μL of acetonitrile. […]

[6] = tested on: angiotensin II (Ang II) and angiotensin-converting enzyme (ACE); design: method as in PMID 37446639; conditions: SHR; cited from earlier work
[7] = tested on: spontaneously hypertensive rats (SHR); experiment: Serum creatinine and renal NOX2 expression in SHR; assay type: in vivo, rat
[8] = design: method as in PMID 23607051; conditions: cited from earlier work

CC(NC(=O)C(O)Cc1ccc(O)c(O)c1)C(=O)N1CCCC1C(=O)OC1CC2CCC1(C)C2(C)C (stereo not drawn) [221s (2,9)]
effects on body weight, dietary intake, histopathological parameters of liver, lungs and kidneys ([1]; at 3000 mg/kg oral gavage): no substantial effects
acute toxicity ([1]; oral gavage): no significant acute toxicity
maximum tolerated dose ([1]; oral gavage): 3000 mg/kg
antihypertensive efficacy compared with captopril [2]: comparable to that of captopril
reduction of diastolic blood pressure [2]: 35 mmHg
reduction of systolic blood pressure [2]: 50 mmHg
ACE content [3]: reduces ACE content
Stability RE (%) ([4]; bile, autosampler rack (4 °C) for 24 h, spiked 10 ng/mL): −4.4%
Stability RE (%) ([4]; bile, autosampler rack (4 °C) for 24 h, spiked 1000 ng/mL): −3.2%
Stability RE (%) ([4]; bile, autosampler rack (4 °C) for 24 h, spiked 1600 ng/mL): −3.8%
Stability RE (%) ([4]; bile, room temperature for 2 h, spiked 10 ng/mL): −5.2%
Stability RE (%) ([4]; bile, room temperature for 2 h, spiked 1000 ng/mL): −4.5%
Stability RE (%) ([4]; bile, room temperature for 2 h, spiked 1600 ng/mL): 5.1%
Stability RE (%) ([4]; bile, three freeze/thaw cycles, spiked 10 ng/mL): −8.4%
Stability RE (%) ([4]; bile, three freeze/thaw cycles, spiked 1000 ng/mL): −4.1%
Stability RE (%) ([4]; bile, three freeze/thaw cycles, spiked 1600 ng/mL): 4.2%
Stability RE (%) ([4]; bile, −80 °C for 30 days, spiked 10 ng/mL): −3.1%
Stability RE (%) ([4]; bile, −80 °C for 30 days, spiked 1000 ng/mL): 1.5%
Stability RE (%) ([4]; bile, −80 °C for 30 days, spiked 1600 ng/mL): 3.4%
Stability RE (%) ([4]; feces, autosampler rack (4 °C) for 24 h, spiked 10 ng/mL): −4.9%
Stability RE (%) ([4]; feces, autosampler rack (4 °C) for 24 h, spiked 1000 ng/mL): −2.2%
Stability RE (%) ([4]; feces, autosampler rack (4 °C) for 24 h, spiked 1600 ng/mL): 4.6%
Stability RE (%) ([4]; feces, room temperature for 2 h, spiked 10 ng/mL): −6.7%
Stability RE (%) ([4]; feces, room temperature for 2 h, spiked 1000 ng/mL): −3.6%
Stability RE (%) ([4]; feces, room temperature for 2 h, spiked 1600 ng/mL): −4.7%
Stability RE (%) ([4]; feces, three freeze/thaw cycles, spiked 10 ng/mL): −5.3%
Stability RE (%) ([4]; feces, three freeze/thaw cycles, spiked 1000 ng/mL): −4.8%
Stability RE (%) ([4]; feces, three freeze/thaw cycles, spiked 1600 ng/mL): −3.2%
Stability RE (%) ([4]; feces, −80 °C for 30 days, spiked 10 ng/mL): −6.4%
Stability RE (%) ([4]; feces, −80 °C for 30 days, spiked 1000 ng/mL): −5.3%
Stability RE (%) ([4]; feces, −80 °C for 30 days, spiked 1600 ng/mL): 2.8%
degradation in urinary/fecal/biliary samples ([4]; room temperature 2 h, three freeze-thaw cycles, −80 °C 30 days, 4 °C autosampler 24 h): no significant degradation
Stability RE (%) ([4]; urine, autosampler rack (4 °C) for 24 h, spiked 10 ng/mL): −7.3%
Stability RE (%) ([4]; urine, autosampler rack (4 °C) for 24 h, spiked 1000 ng/mL): −6.3%
Stability RE (%) ([4]; urine, autosampler rack (4 °C) for 24 h, spiked 1600 ng/mL): 3.9%
Stability RE (%) ([4]; urine, room temperature for 2 h, spiked 10 ng/mL): −12.5%
Stability RE (%) ([4]; urine, room temperature for 2 h, spiked 1000 ng/mL): −1.5%
Stability RE (%) ([4]; urine, room temperature for 2 h, spiked 1600 ng/mL): 3.4%
Stability RE (%) ([4]; urine, three freeze/thaw cycles, spiked 10 ng/mL): −9.4%
Stability RE (%) ([4]; urine, three freeze/thaw cycles, spiked 1000 ng/mL): −6.4%
Stability RE (%) ([4]; urine, three freeze/thaw cycles, spiked 1600 ng/mL): −2.6%
Stability RE (%) ([4]; urine, −80 °C for 30 days, spiked 10 ng/mL): −8.7%
Stability RE (%) ([4]; urine, −80 °C for 30 days, spiked 1000 ng/mL): −5.4%
Stability RE (%) ([4]; urine, −80 °C for 30 days, spiked 1600 ng/mL): −5.5%
cumulative fecal output ([5]; feces, at 48 h, rats, unchanged drug): 36,726.31 ± 5507 ng
fecal excretion rate ([5]; feces, between 4 and 8 h, rats, unchanged drug): 7994.29 ± 953.75 ng/h
dose excreted ([5]; bile, bile duct cannulated rats, read-out: recovery of unchanged drug in bile (accumulative excretion rate, % of administered dose)): 0.00044 ± 2e-05%
dose excreted ([5]; feces, rats, read-out: recovery of unchanged drug in feces (accumulative excretion rate, % of administered dose)): 0.73 ± 0.069%
dose excreted ([5]; urine, rats, read-out: recovery of unchanged drug in urine (accumulative excretion rate, % of administered dose)): 0.02 ± 0.021%
total recovery of unchanged drug across all matrices (% of administered dose) ([5]; urine + feces + bile, over 72 h, rats): below 1%
peak urinary excretion rate ([5]; urine, at 8 h post-dosing, rats, unchanged drug): 138.81 ± 15.56 ng/h
cumulative urinary excretion ([5]; urine, plateau by 48 h, rats, unchanged drug): 1479.81 ± 155.7 ng
serum level of angiotensin II (Ang II) [6]: significantly reduced
serum level of angiotensin-converting enzyme (ACE) [6]: significantly reduced
decrease of serum creatinine level ([7]; p < 0.01): 38.99%
downregulation of renal NOX2 expression ([7]; p < 0.05): 16.23%

CC1(C)C2CCC1(C)C(OC(=O)c1cc(O)c(O)c(O)c1)C2 (stereo not drawn) [bornyl gallate]
tissue distribution [8]: pronounced renal accumulation alongside measurable brain distribution
